Data as given in patent US20070219220A1, “Pyrazolopyrimidinethione Derivatives, Salts and Solvates Thereof, Preparation Methods and Use Thereof” (priority 2003, published 2007).

Tested on: rats with testis removed
Experiment: Duration of penile erection in rats with testis removed (Example 8)
Assay type: in vivo, wistar rats

## CCCc1nn(C)c2c(=S)[nH]c(-c3cc(S(=O)(=O)N4C[C@@H](C)N[C@@H](C)C4)ccc3OCC)nc12 [Compound (2), 5-[2-ethoxy-5-(cis-3,5-dimethylpiperazin-1-sulfonyl)phenyl]-1-methyl-3-n-propyl-1,6-dihydro-7H-pyrazolo[4,3-d]pyrimidin-7-thione]
Oral 10 mg/kg, at 1 h after administration
  Penile swelling time: 679.6 ± 13.2 s
Oral 10 mg/kg, at 3 h after administration
  Penile swelling time: 544.7 ± 166.9 s
Oral 10 mg/kg, at 6 h after administration
  Penile swelling time: 268.7 ± 146.2 s
Oral 10 mg/kg, at 24 h after administration
  Penile swelling time: 98.6 ± 57.9 s
Oral 10 mg/kg, value before administration
  Penile swelling time: 67.7 ± 12.3 s
Oral 20 mg/kg, at 1 h after administration
  Penile swelling time: 1514.8 ± 258.9 s
Oral 20 mg/kg, at 3 h after administration
  Penile swelling time: 906.0 ± 406.7 s
Oral 20 mg/kg, at 6 h after administration
  Penile swelling time: 275.8 ± 154.2 s
Oral 20 mg/kg, at 24 h after administration
  Penile swelling time: 201.0 ± 85.7 s
Oral 20 mg/kg, value before administration
  Penile swelling time: 82.4 ± 26.6 s
Oral 40 mg/kg and 20 mg/kg
  how long the penile swelling effect lasts after administration: up to 24 hours
Oral 40 mg/kg, at 1 h after administration
  Penile swelling time: 2187.1 ± 547.8 s
Oral 40 mg/kg, at 3 h after administration
  Penile swelling time: 783.0 ± 329.2 s
Oral 40 mg/kg, at 6 h after administration
  Penile swelling time: 678.7 ± 221.8 s
Oral 40 mg/kg, at 24 h after administration
  Penile swelling time: 194.0 ± 65.1 s
Oral 40 mg/kg, value before administration
  Penile swelling time: 84.0 ± 18.4 s
